{
  "source": "paper PMC10088252",
  "origin": "cited, not measured here",
  "molecules": {"B1": {"name": "telisotuzumab vedotin (conjugate, chains of the INN, looked up)", "VH": "QVQLVQSGAEVKKPGASVKVSCKASGYIFTAYTMHWVRQAPGQGLEWMGWIKPNNGLANYAQKFQGRVTMTRDTSISTAYMELSRLRSDDTAVYYCARSEITTEFDYWGQGTLVTVSS", "VL": "DIVMTQSPDSLAVSLGERATINCKSSESVDSYANSFLHWYQQKPGQPPKLLIYRASTRESGVPDRFSGSGSGTDFTLTISSLQAEDVAVYYCQQSKEDPLTFGGGTKVEIK", "modifications": "vedotin (MMAE) payload"}},
  "key": {"[1]": {"tested_on": "MET- or ROS1-positive NSCLC", "set-up": "method as in PMID 31584608", "details": "cited from earlier work"}, "[2]": {"tested_on": "MET exon 14-mutated NSCLC", "set-up": "method as in PMID 35720834", "details": "real-world; cited from earlier work"}, "[3]": {"tested_on": "MET exon 14-mutated or MET-amplified NSCLC", "set-up": "method as in PMID 32877583", "details": "cited from earlier work"}, "[4]": {"tested_on": "MET-positive solid tumors", "set-up": "method as in PMID 31778267", "details": "all patients (76); cited from earlier work"}, "[5]": {"tested_on": "NSCLC harboring MET exon 14 skipping mutation", "set-up": "method as in PMID 34166627", "details": "cited from earlier work"}, "[6]": {"tested_on": "advanced solid tumors with c-MET H-score of ≥ 150", "set-up": "method as in PMID 30285518", "details": "16 patients with NSCLC; cited from earlier work"}, "[7]": {"details": "of 13 patients with brain metastases at baseline"}},
  "note": "Where two headings read alike, the source gives them in different places.",
  "data": [
    {"molecule": "C[C@@H](Oc1cc(-c2cnn(C3CCNCC3)c2)cnc1N)c1c(Cl)ccc(F)c1Cl", "note": "[crizotinib]", "values": [
      {"measurement": "ORR", "setting": "[1]; MET copy number ≥ 6", "value": 16, "unit": "%"},
      {"measurement": "ORR", "setting": "[1]; MET mutation", "value": 10.7, "unit": "%"}
    ]},
    {"molecule": "CNC(=O)c1ccc(-c2cnc3ncc(Cc4ccc5ncccc5c4)n3n2)cc1F", "note": "[capmatinib]", "values": [
      {"measurement": "ORR", "setting": "[2]", "value": 58, "unit": "%"},
      {"measurement": "median PFS", "setting": "[2]", "value": 9.5, "unit": "months"},
      {"measurement": "ORR", "setting": "[3]; MET amplification, gene copy number < 10", "value": "7–12%"},
      {"measurement": "ORR", "setting": "[3]; MET amplification, gene copy number ≥ 10, previously treated", "value": 29, "unit": "%"},
      {"measurement": "ORR", "setting": "[3]; MET amplification, gene copy number ≥ 10, treatment-naïve", "value": 40, "unit": "%"},
      {"measurement": "TEAE nausea", "setting": "[3]", "value": 45, "unit": "%"},
      {"measurement": "TEAE peripheral edema", "setting": "[3]", "value": 51, "unit": "%"},
      {"measurement": "patients who discontinued treatment due to TRAEs", "setting": "[3]", "value": 11, "unit": "%"},
      {"measurement": "patients achieving intracranial response", "setting": "[3]; [7]", "value": "Seven"},
      {"measurement": "patients with intracranial CR", "setting": "[3]; [7]", "value": "four"},
      {"measurement": "ORR", "setting": "[3]; patients harboring MET exon 14 skipping mutation", "value": 41, "unit": "%"},
      {"measurement": "ORR", "setting": "[3]; previously treated MET exon 14-mutated NSCLC", "value": 41, "unit": "%"},
      {"measurement": "ORR", "setting": "[3]; treatment-naïve MET exon 14-mutated NSCLC", "value": 68, "unit": "%"},
      {"measurement": "DCR", "setting": "[4]", "value": 26, "unit": "%"}
    ]},
    {"molecule": "C[C@@H](c1ccc2nccn2c1)n1nnc2ncc(-c3cnn(C)c3)nc21", "note": "[savolitinib]", "values": [
      {"measurement": "DCR", "setting": "[5]; 15 MET exon 14-mutated NSCLC patients with brain metastases", "value": 93.3, "unit": "%"},
      {"measurement": "grade ≥ 3 TRAE increased ALT", "setting": "[5]", "value": 10, "unit": "%"},
      {"measurement": "grade ≥ 3 TRAE increased AST", "setting": "[5]", "value": 13, "unit": "%"},
      {"measurement": "grade ≥ 3 TRAE peripheral oedema", "setting": "[5]", "value": 9, "unit": "%"},
      {"measurement": "incidence of grade ≥ 3 TRAEs", "setting": "[5]", "value": 46, "unit": "%"},
      {"measurement": "ORR", "setting": "[5]; patients harboring MET exon 14 skipping mutation, FAS", "value": 42.9, "unit": "%"}
    ]},
    {"molecule": "B1", "values": [
      {"measurement": "DCR", "setting": "[6]", "value": 56, "unit": "%"}
    ]}
  ]
}
